Source: patent US7816343B2, “Wood preservative composition” (HWD Acquisition, Inc., priority 2007, dated 2010)

Experiments:
[1] = Compatibility Test B: mixtures of single borate esters with Fungicide I; format: physicochemical; conditions: for appearance during mixing / separation or precipitation after mixing: borate ester mixed with Fungicide I (TBGB, HGB 10%); for overall stability of mixture with Fungicide I: conclusion from the observations; for collapse of closed container (moisture drawn from air): mixture with Fungicide I in closed container, TBGB a week, THGB 18 days
Text: A mixture of Fungicide I and a 10% tributylene glycol biborate (TBGB) was made by pouring the TBGB into the Fungicide I. The following observations were made while making and after making the mixture.
The TBGB reacted with moisture in the air while pouring and formed a thin white film over the pour stream. […] This behavior was duplicated by opening the container and allowing it to come back to its normal shape and closing the container again. It is noted that TBGB in a fungicide mixture when open to the air will draw moisture from the air and hydrolyze to a form insolubles and result in an increase in the separated phase. The hazing during mixing and phase separation seen during the first test was identical to that observed during this mixing.
The TBGB test was repeated using a mixture of 10% hexylene glycol biborate (HGB). The mixture was made by pouring the HGB into the Fungicide I composition. The following observations were made while making and after making the mixture:
The container was closed. The crystalline material is soluble in water and isopropyl alcohol. A 10% HGB/mineral spirits solution was made to test for moisture adsorption from the air. […] The crystalline material is likely the hydroxy hexylene glycol borate compound formed by hydrolysis of the anhydride bond. The crystal formation in the HGB testing is similar to that observed in the first test in the test mixture storage drum.
The basic observations are that both the TBGB and HGB react with various components of the Fungicide I mixture and react with moisture in the air.
A mixture of tri hexylene glycol biborate (THGB) and Fungicide I was made. It was observed that the solution remains clear with no separation. Next, the mixture was left open to atmosphere for 90 days at 40% to 50% relative humidity conditions. […] A 10% evaporative loss of mineral spirits approximately every 14 days was replaced with new mineral spirits without any negative effects. […] The mixture was placed in a 0° F. freezer overnight. […] The mixture was placed in a 42° F. refrigerator for 63 hours.

[2] = cited from earlier work

CC1CC(C)(C)OB(OC(C)CC(C)(C)OB2OC(C)CC(C)(C)O2)O1 (stereo not drawn) [THGB, tri hexylene glycol biborate]
redissolution on heating ([1]; after freezer, heated to approximately 20 F with stirring): dissolved all of the white solids | appearance during mixing [1]: remains clear | separation or precipitation after mixing [1]: no separation | overall stability of mixture with Fungicide I [1]: produces stable mixtures | collapse of closed container (moisture drawn from air) [1]: without any collapse | appearance after open storage ([1]; mixture with Fungicide I left open to atmosphere 90 days, 40% to 50% relative humidity): remained clear with no separation and no precipitation of solids | appearance after freezer storage ([1]; mixture with Fungicide I, 0° F. freezer overnight): white solids were observed at the bottom of the container | appearance after refrigerator storage ([1]; mixture with Fungicide I, 42° F. refrigerator, 63 hours): remained clear without separation or precipitation

OB(O)O [boric acid]
maximum boron concentration of saturated aqueous solution [2]: no more than one

CC1CCOB(OCCC(C)OB2OCCC(C)O2)O1 (stereo not drawn) [TBGB, tributylene glycol biborate]
appearance during mixing [1]: immediately became hazy | separation or precipitation after mixing [1]: brownish/red colored layer immediately began to form at the bottom of the container | overall stability of mixture with Fungicide I [1]: too reactive to form stable mixtures | collapse of closed container (moisture drawn from air) [1]: collapse slightly after a week

CC1CC(C)(C)OB(OB2OC(C)CC(C)(C)O2)O1 (stereo not drawn) [HGB, hexylene glycol biborate]
appearance of solution, container closed ([1]; 10% HGB/mineral spirits solution, container closed): remained clear without separation or solid precipitation | appearance of solution, container open to air ([1]; 10% HGB/mineral spirits solution, opened to air, over night): white crystal formation | appearance during mixing [1]: remained clear during mixing | separation or precipitation after mixing [1]: opaque white crystalline material immediately formed on the container surfaces | overall stability of mixture with Fungicide I [1]: too reactive to form stable mixtures
